Format in all cases: in vivo
One experiment has as its system Corn Maeva. Nature of the experiment: Plant growth regulation on corn, greenhouse spray, visual shoot growth reduction. To be noted: 33 days after application, growth stage 13, vs untreated control. As to the method: (§1) Corn plants of 4 different varieties were grown under greenhouse conditions and sprayed at growth stage 13 (3 leaves unfolded) with a boom sprayer. Trinexapac-ethyl was applied as Moddus® ME250 formulation, and Prohexadion-Ca was applied as Viviful® WG 10 formulation with a standard flat fan nozzle at 200 l/ha spray volume. 33 days after application the plant growth reduction (% GR) of the shoot (leaves and stem) was evaluated visually compared to the untreated control. The expected plant growth reduction was calculated according to Colby (Colby 1967, Weeds 15, 20-22) and compared to evaluation data of sprayed plants.

A further experiment deals with Corn Ronaldinio. The experiment is described as above. The note with it: 33 days after application, growth stage 13, vs untreated control. As to the method:
as §1

For the next experiment, the system named is Corn ECO5133. Described as above. The note with it: 33 days after application, growth stage 13, vs untreated control. As to the method: as §1
Another experiment deals with Corn LG22.65. Described as above. To be noted: 33 days after application, growth stage 13, vs untreated control. As to the method: as §1
The next experiment has as its system Winter-wheat Arina. In words: Plant growth regulation on cereals, greenhouse spray, visual shoot growth reduction. To be noted: 13 days after application, growth stage 30-32, vs untreated control. As to the method: as §1, with “Plants” for “Corn plants of 4 different varieties”, “30-32 (start of stem elongation) of cereal plants” for “13 (3 leaves unfolded)”, “Trinexapac-ethyl (treatment A)” for “Trinexapac-ethyl”, “Prohexadione-Ca (treatment B)” for “Prohexadion-Ca”, “WG10” for “WG 10”, “13” for “33”

In a further experiment the test system is Spring-barley Pasadena. The description is as above. To be noted: 13 days after application, growth stage 30-32, vs untreated control. On the procedure:
as §1, with “Plants” for “Corn plants of 4 different varieties”, “30-32 (start of stem elongation) of cereal plants” for “13 (3 leaves unfolded)”, “Trinexapac-ethyl (treatment A)” for “Trinexapac-ethyl”, “Prohexadione-Ca (treatment B)” for “Prohexadion-Ca”, “WG10” for “WG 10”, “13” for “33”

The subject of the next experiment is Winter-barley Hasso. The description is as above. The note with it: 13 days after application, growth stage 30-32, vs untreated control. As to the method: as §1, with “Plants” for “Corn plants of 4 different varieties”, “30-32 (start of stem elongation) of cereal plants” for “13 (3 leaves unfolded)”, “Trinexapac-ethyl (treatment A)” for “Trinexapac-ethyl”, “Prohexadione-Ca (treatment B)” for “Prohexadion-Ca”, “WG10” for “WG 10”, “13” for “33”

Another experiment relates to Spring-wheat Lona. Described as above. The note with it: 13 days after application, growth stage 30-32, vs untreated control. On the procedure:
as §1, with “Plants” for “Corn plants of 4 different varieties”, “30-32 (start of stem elongation) of cereal plants” for “13 (3 leaves unfolded)”, “Trinexapac-ethyl (treatment A)” for “Trinexapac-ethyl”, “Prohexadione-Ca (treatment B)” for “Prohexadion-Ca”, “WG10” for “WG 10”, “13” for “33”

Turning to `CCOC(=O)C1CC(=O)C(=C(O)C2CC2)C(=O)C1` (stereo not shown) [A, Trinexapac-ethyl], the “% GR (plant growth reduction of the shoot)” value is on record as 1.7% in the experiment on Corn Maeva (25 g a.i./ha); 3.3% with Corn Maeva (50 g a.i./ha); 6.7% in the experiment on Corn Maeva (100 g a.i./ha); 0.0% with Corn Ronaldinio (25 g a.i./ha); 0.0% with Corn Ronaldinio (50 g a.i./ha); 3.3% with Corn Ronaldinio (100 g a.i./ha). The “% GR (plant growth reduction of the shoot)” value was 1.7% in the experiment on Corn ECO5133 (25 g a.i./ha); 1.7% in the experiment with Corn ECO5133 (50 g a.i./ha); 6.7% in the experiment with Corn ECO5133 (100 g a.i./ha); 0.0% in the experiment on Corn LG22.65 (25 g a.i./ha); 3.3% in the experiment on Corn LG22.65 (50 g a.i./ha); 11.7% in the experiment with Corn LG22.65 (100 g a.i./ha). The “% GR (plant growth reduction of the shoot)” value in the experiment on Winter-wheat Arina (25 g a.i./ha) was found to be 0.0%; in the experiment with Winter-wheat Arina (50 g a.i./ha), 5.0%; in the experiment on Spring-barley Pasadena (25 g a.i./ha), 0.0%; in the experiment on Spring-barley Pasadena (50 g a.i./ha) it was 0.0%; in the experiment on Winter-barley Hasso (25 g a.i./ha), 0.0%; in the experiment on Winter-barley Hasso (50 g a.i./ha), 5.0%. Besides, the entries for the “% GR (plant growth reduction of the shoot)” value in the experiment on Spring-wheat Lona (25 g a.i./ha) and in the experiment with Spring-wheat Lona (50 g a.i./ha) were 1.7% and 3.3%, respectively.
`CCC(=O)C1=C([O-])CC(C(=O)[O-])CC1=O.[Ca+2]` (stereo not shown) [B, Prohexadione-Ca]: the “% GR (plant growth reduction of the shoot)” value was determined as 1.7% in the experiment with Corn Maeva (25 g a.i./ha); 5.0% in the experiment with Corn Maeva (50 g a.i./ha); 18.3% with Corn Maeva (100 g a.i./ha); 0.0% with Corn Ronaldinio (25 g a.i./ha); 0.0% in the experiment on Corn Ronaldinio (50 g a.i./ha); 1.7% in the experiment on Corn Ronaldinio (100 g a.i./ha). For the same compound, the “% GR (plant growth reduction of the shoot)” value in the experiment with Corn ECO5133 (25 g a.i./ha) worked out at 0.0%; in the experiment on Corn ECO5133 (50 g a.i./ha), 0.0%; in the experiment with Corn ECO5133 (100 g a.i./ha) it was 0.0%; with Corn LG22.65 (25 g a.i./ha), 0.0%; in the experiment with Corn LG22.65 (50 g a.i./ha), 1.7%; with Corn LG22.65 (100 g a.i./ha), 13.3%. For the same compound, the “% GR (plant growth reduction of the shoot)” value with Winter-wheat Arina (25 g a.i./ha) was 0.0%; with Winter-wheat Arina (50 g a.i./ha), 3.3%; in the experiment on Spring-barley Pasadena (25 g a.i./ha) it was 0.0%; in the experiment on Spring-barley Pasadena (50 g a.i./ha), 1.7%; in the experiment on Winter-barley Hasso (25 g a.i./ha), 0.0%; in the experiment with Winter-barley Hasso (50 g a.i./ha) it was 5.0%. Moreover, the “% GR (plant growth reduction of the shoot)” value in the experiment on Spring-wheat Lona (25 g a.i./ha) is 0.0%; in the experiment on Spring-wheat Lona (50 g a.i./ha) it was 3.3%.

Source of the values: US8580709B2, “Plant growth regulation” (Syngenta Crop Protection, LLC, priority 2009, dated 2013).
